Results reported in patent publication US9980943B2, “Methods of treating muscular dystrophy” (BOARD OF REGENTS OF THE NEVADA SYSTEM OF HIGHER EDUCATION, …, priority 2013, dated 2018).

Columns and labels:
Assay type in all cases: cell-based, mouse
[1] = tested on: α7 integrin (LacZ reporter in α7βgal+/− myoblasts); test: Myoblast α7+/LacZ integrin FDG assay (Burkin assay in myoblasts, 96-well); conditions: α7+/LacZ myoblasts, 96-well
[2] = tested on: α7 integrin (LacZ reporter in α7+/LacZ myotubes); test: Myotube α7 integrin FDG assay (Burkin assay in myotubes, 96-well); conditions: myotubes
[3] = tested on: β-galactosidase in CMV-LacZ C2C12 myoblasts; test: CMV-LacZ secondary screen in C2C12 myoblasts (β-Gal stabilizing assay); conditions: CMV-LacZ C2C12 myoblasts
Procedure, shortened: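 β-gal stabilization was measured in C2C12 myoblasts or myotubes stably transfected with a CMV-driven LacZ construct, using the FDG β-gal assay. Compounds were tested in dose-response at 0.5, 1, 5, 10, 20 and 40 μM, with two replicates per point.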

[4] = tested on: β-galactosidase in CMV-LacZ C2C12 myotubes; test: CMV-LacZ secondary screen in C2C12 myotubes (β-Gal stabilizing assay); conditions: C2C12 CMV-LacZ myotubes, fold relative to DMSO
Procedure, shortened: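 A secondary screen identifies compounds that stabilize β-gal independently of the native promoter, using CMV-LacZ C2C12 cells. Curves span 0.5–40 μM at six levels, in duplicate.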

| Structure (SMILES) | Burkin Assay in Myoblasts, signal relative to DMSO ([1]; 0.5 uM) | Burkin Assay in Myoblasts, signal relative to DMSO ([1]; 1 uM) | Burkin Assay in Myoblasts, signal relative to DMSO ([1]; 5 uM) | Burkin Assay in Myoblasts, signal relative to DMSO ([1]; 10 uM) | Burkin Assay in Myoblasts, signal relative to DMSO ([1]; 20 uM) | Burkin Assay in Myoblasts, signal relative to DMSO ([1]; 40 uM) | Burkin Assay in Myotubes, α7 integrin LacZ reporter signal relative to DMSO ([2]; 0.5 uM) | Burkin Assay in Myotubes, α7 integrin LacZ reporter signal relative to DMSO ([2]; 1 uM) | Burkin Assay in Myotubes, α7 integrin LacZ reporter signal relative to DMSO ([2]; 5 uM) | Burkin Assay in Myotubes, α7 integrin LacZ reporter signal relative to DMSO ([2]; 10 uM) | Burkin Assay in Myotubes, α7 integrin LacZ reporter signal relative to DMSO ([2]; 20 uM) | Burkin Assay in Myotubes, α7 integrin LacZ reporter signal relative to DMSO ([2]; 40 uM) | CMV-LACZ in Myoblasts (β-galactosidase activity relative to DMSO) ([3]; 0.5 uM) | CMV-LACZ in Myoblasts (β-galactosidase activity relative to DMSO) ([3]; 1 uM) | CMV-LACZ in Myoblasts (β-galactosidase activity relative to DMSO) ([3]; 5 uM) | CMV-LACZ in Myoblasts (β-galactosidase activity relative to DMSO) ([3]; 10 uM) | CMV-LACZ in Myoblasts (β-galactosidase activity relative to DMSO) ([3]; 20 uM) | CMV-LACZ in Myoblasts (β-galactosidase activity relative to DMSO) ([3]; 40 uM) | CMV-LACZ in Myotubes, signal relative to DMSO ([4]; 0.5 uM) | CMV-LACZ in Myotubes, signal relative to DMSO ([4]; 1 uM) | other results |
| --- | --- | --- | --- | --- | --- | --- | --- | --- | --- | --- | --- | --- | --- | --- | --- | --- | --- | --- | --- | --- | --- |
| O=C(CNC(=O)c1cccc(F)c1)N/N=C/c1cc(Br)ccc1OCc1ccccc1 [MLS000591667-01] | 0.9901 | 1.034 | 1.132 | 1.088 | 0.8623 | 1.1351 | 1.005 | 1.1434 | 1.072 | 0.9986 | 0.6781 | 0.6965 | 0.9491 | 0.7850 | 1.1587 | 1.1592 | 0.8030 | 1.0593 | 0.8600 | 1.0726 | CMV-LACZ in Myotubes, signal relative to DMSO ([4]; 5 uM): 1.0824; CMV-LACZ in Myotubes, signal relative to DMSO ([4]; 10 uM): 1.0152; CMV-LACZ in Myotubes, signal relative to DMSO ([4]; 20 uM): 0.8929; CMV-LACZ in Myotubes, signal relative to DMSO ([4]; 40 uM): 0.8800 |
| COC(=O)c1ccccc1NC(=O)CSc1nc(O)c(-c2ccccc2)c(=O)[nH]1 [MLS000621451-01] | 1.065 | 1.018 | 1.066 | 1.114 | 1.0713 | 1.088 | 0.9471 | 0.8932 | 0.9254 | 1.071 | 0.8327 | 1.024 | 1.0388 | 1.1579 | 0.9255 | 1.3023 | 1.2493 | 1.1926 | 1.1114 | 0.9295 | CMV-LACZ in Myotubes, signal relative to DMSO ([4]; 5 uM): 1.0177; CMV-LACZ in Myotubes, signal relative to DMSO ([4]; 10 uM): 1.1398; CMV-LACZ in Myotubes, signal relative to DMSO ([4]; 20 uM): 0.9853; CMV-LACZ in Myotubes, signal relative to DMSO ([4]; 40 uM): 0.9695 |
| Cc1ccc(C(=O)N2CCN(S(=O)(=O)N3CCOCC3)CC2)cc1 [MLS000663185-01] | 1.109 | 0.9744 | 1.399 | 0.9312 | 0.9222 | 0.8328 | 0.968 | 0.8137 | 0.9767 | 1.0708 | 0.7791 | 1.118 | 1.1390 | 1.1477 | 0.9688 | 0.8567 | 0.9211 | 0.9347 | 1.0924 | 0.9800 | CMV-LACZ in Myotubes, signal relative to DMSO ([4]; 5 uM): 0.9322; CMV-LACZ in Myotubes, signal relative to DMSO ([4]; 10 uM): 0.8722; CMV-LACZ in Myotubes, signal relative to DMSO ([4]; 20 uM): 0.9540; CMV-LACZ in Myotubes, signal relative to DMSO ([4]; 40 uM): 1.1270 |
| COCCSc1ccccc1C(=O)Nc1cc(C)cc(C)c1 [MLS000675441-01] | 0.9397 | 0.8764 | 1.044 | 1.248 | 0.9015 | 0.8996 | 0.8552 | 1.071 | 0.9591 | 1.119 | 0.7476 | 0.7168 | 1.0332 | 0.9289 | 0.8800 | 0.8690 | 0.8656 | 0.7437 | 1.0074 | 1.1032 | CMV-LACZ in Myotubes, signal relative to DMSO ([4]; 5 uM): 1.0460; CMV-LACZ in Myotubes, signal relative to DMSO ([4]; 10 uM): 1.0337; CMV-LACZ in Myotubes, signal relative to DMSO ([4]; 20 uM): 0.9578; CMV-LACZ in Myotubes, signal relative to DMSO ([4]; 40 uM): 0.9822 |
| COc1cccc(C(=O)COc2ccc3ccc(=O)oc3c2)c1 [MLS000677675-01] | 1.093 | 1.061 | 0.9873 | 1.028 | 1.004 | 0.9554 | 1.278 | 1.205 | 1.081 | 1.044 | 0.6675 | 0.6873 | 1.0343 | 1.1214 | 0.9905 | 1.0373 | 1.0763 | 1.1578 | 0.8619 | 0.9962 | CMV-LACZ in Myotubes, signal relative to DMSO ([4]; 5 uM): 1.0578; CMV-LACZ in Myotubes, signal relative to DMSO ([4]; 10 uM): 1.0091; CMV-LACZ in Myotubes, signal relative to DMSO ([4]; 20 uM): 0.9918; CMV-LACZ in Myotubes, signal relative to DMSO ([4]; 40 uM): 1.2494 |
| CCOc1ccc2nc(Cl)sc2c1 [MLS000678673-01] | 0.9325 | 1.054 | 1.044 | 0.9687 | 1.173 | 1.134 | 0.9772 | 0.9802 | 0.9767 | 0.9606 | 0.8655 | 0.781 | 1.2106 | 1.1914 | 1.0561 | 0.8991 | 0.8674 | 0.9656 | 1.1229 | 1.0286 | CMV-LACZ in Myotubes, signal relative to DMSO ([4]; 5 uM): 0.7918; CMV-LACZ in Myotubes, signal relative to DMSO ([4]; 10 uM): 0.9367; CMV-LACZ in Myotubes, signal relative to DMSO ([4]; 20 uM): 0.9635; CMV-LACZ in Myotubes, signal relative to DMSO ([4]; 40 uM): 1.1835 |
